Columns and labels:
[1] = molecular target: Lysine-specific demethylase 5A/5B (Homo sapiens, UniProt P29375+Q9UGL1); experiment: Inhibition of KDM5A/KDM5B in human ZR-75-1 cells assessed as increase in H3K4me3 level after 72 hrs by fluorometric immunoassay; assay type: cell-based
[2] = molecular target: Lysine-specific demethylase 5A (Homo sapiens, UniProt P29375); experiment: Inhibition of KDM5A (unknown origin) preincubated with enzyme
[3] = molecular target: Lysine-specific demethylase 5B (Homo sapiens, UniProt Q9UGL1); experiment: Inhibition of KDM5B (unknown origin) preincubated with enzyme
Sequence of Lysine-specific demethylase 5B (Q9UGL1 whole entry): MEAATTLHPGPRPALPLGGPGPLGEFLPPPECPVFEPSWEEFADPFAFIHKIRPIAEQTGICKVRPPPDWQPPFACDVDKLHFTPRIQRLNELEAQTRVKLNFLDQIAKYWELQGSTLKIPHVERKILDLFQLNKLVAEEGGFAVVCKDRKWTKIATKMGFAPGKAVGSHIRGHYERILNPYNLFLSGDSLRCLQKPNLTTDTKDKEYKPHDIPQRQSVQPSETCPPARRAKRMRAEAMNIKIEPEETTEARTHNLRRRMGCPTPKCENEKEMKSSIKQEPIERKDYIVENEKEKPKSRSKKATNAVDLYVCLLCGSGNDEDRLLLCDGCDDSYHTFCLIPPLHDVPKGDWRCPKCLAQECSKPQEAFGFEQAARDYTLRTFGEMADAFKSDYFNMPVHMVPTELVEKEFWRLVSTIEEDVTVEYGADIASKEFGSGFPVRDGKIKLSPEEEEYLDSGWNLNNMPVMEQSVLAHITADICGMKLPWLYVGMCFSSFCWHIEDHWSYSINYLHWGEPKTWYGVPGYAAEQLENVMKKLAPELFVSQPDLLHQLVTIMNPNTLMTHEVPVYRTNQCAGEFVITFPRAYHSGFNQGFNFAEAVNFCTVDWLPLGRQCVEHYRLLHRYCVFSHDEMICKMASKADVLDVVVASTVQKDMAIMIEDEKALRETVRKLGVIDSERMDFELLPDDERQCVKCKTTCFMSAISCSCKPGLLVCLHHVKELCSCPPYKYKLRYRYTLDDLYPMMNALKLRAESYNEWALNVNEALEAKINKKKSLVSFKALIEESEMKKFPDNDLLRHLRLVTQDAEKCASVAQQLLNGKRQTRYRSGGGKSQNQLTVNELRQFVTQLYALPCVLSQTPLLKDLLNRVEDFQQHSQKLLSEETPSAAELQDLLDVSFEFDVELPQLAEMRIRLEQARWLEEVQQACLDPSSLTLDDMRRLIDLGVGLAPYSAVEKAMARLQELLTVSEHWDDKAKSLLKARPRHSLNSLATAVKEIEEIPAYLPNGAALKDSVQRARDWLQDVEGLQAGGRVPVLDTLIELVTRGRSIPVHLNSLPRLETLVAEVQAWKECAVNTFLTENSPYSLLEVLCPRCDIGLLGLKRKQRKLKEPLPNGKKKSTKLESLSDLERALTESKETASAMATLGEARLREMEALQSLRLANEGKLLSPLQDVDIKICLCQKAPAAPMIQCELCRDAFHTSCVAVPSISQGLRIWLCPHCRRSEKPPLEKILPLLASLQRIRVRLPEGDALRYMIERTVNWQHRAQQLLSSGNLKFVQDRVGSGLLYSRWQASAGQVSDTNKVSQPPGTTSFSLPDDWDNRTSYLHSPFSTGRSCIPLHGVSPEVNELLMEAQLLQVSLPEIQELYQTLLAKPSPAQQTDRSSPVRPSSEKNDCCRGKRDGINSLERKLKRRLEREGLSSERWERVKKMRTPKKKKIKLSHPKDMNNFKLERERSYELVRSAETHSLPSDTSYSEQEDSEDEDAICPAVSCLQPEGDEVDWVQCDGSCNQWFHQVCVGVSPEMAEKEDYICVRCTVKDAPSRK

[4] = molecular target: T1, Lysine-specific demethylase 4C (Homo sapiens, UniProt Q9H3R0); experiment: Inhibition of KDM4C (unknown origin) preincubated with enzyme
T1 sequence (Q9H3R0 whole entry): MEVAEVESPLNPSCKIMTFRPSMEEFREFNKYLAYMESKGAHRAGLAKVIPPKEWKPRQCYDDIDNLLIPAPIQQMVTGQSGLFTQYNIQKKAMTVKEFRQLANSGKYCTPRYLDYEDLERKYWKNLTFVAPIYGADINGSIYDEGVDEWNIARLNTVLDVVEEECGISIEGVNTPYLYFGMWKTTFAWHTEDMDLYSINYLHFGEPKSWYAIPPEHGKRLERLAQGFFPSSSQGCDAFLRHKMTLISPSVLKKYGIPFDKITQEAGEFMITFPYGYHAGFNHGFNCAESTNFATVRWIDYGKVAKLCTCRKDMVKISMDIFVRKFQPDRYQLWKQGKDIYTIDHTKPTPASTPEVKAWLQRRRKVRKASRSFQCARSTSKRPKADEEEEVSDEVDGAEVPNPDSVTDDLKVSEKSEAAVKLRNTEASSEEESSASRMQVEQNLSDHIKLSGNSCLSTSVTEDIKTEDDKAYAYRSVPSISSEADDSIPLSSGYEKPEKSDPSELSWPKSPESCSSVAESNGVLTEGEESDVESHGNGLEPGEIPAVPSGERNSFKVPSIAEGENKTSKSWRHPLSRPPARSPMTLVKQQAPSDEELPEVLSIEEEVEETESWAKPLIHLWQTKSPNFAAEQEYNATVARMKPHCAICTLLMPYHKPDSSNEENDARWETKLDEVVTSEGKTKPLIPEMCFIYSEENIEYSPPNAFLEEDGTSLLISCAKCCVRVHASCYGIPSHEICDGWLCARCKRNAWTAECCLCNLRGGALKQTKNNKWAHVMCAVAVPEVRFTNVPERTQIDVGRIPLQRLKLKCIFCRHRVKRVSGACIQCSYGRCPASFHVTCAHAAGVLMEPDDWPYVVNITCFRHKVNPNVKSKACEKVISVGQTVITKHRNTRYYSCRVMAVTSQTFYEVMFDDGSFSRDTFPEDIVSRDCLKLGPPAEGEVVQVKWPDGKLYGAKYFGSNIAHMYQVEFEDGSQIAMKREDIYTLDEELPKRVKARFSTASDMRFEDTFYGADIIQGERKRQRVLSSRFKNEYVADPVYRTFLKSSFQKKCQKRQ

Sequence of Lysine-specific demethylase 5A (P29375 whole entry): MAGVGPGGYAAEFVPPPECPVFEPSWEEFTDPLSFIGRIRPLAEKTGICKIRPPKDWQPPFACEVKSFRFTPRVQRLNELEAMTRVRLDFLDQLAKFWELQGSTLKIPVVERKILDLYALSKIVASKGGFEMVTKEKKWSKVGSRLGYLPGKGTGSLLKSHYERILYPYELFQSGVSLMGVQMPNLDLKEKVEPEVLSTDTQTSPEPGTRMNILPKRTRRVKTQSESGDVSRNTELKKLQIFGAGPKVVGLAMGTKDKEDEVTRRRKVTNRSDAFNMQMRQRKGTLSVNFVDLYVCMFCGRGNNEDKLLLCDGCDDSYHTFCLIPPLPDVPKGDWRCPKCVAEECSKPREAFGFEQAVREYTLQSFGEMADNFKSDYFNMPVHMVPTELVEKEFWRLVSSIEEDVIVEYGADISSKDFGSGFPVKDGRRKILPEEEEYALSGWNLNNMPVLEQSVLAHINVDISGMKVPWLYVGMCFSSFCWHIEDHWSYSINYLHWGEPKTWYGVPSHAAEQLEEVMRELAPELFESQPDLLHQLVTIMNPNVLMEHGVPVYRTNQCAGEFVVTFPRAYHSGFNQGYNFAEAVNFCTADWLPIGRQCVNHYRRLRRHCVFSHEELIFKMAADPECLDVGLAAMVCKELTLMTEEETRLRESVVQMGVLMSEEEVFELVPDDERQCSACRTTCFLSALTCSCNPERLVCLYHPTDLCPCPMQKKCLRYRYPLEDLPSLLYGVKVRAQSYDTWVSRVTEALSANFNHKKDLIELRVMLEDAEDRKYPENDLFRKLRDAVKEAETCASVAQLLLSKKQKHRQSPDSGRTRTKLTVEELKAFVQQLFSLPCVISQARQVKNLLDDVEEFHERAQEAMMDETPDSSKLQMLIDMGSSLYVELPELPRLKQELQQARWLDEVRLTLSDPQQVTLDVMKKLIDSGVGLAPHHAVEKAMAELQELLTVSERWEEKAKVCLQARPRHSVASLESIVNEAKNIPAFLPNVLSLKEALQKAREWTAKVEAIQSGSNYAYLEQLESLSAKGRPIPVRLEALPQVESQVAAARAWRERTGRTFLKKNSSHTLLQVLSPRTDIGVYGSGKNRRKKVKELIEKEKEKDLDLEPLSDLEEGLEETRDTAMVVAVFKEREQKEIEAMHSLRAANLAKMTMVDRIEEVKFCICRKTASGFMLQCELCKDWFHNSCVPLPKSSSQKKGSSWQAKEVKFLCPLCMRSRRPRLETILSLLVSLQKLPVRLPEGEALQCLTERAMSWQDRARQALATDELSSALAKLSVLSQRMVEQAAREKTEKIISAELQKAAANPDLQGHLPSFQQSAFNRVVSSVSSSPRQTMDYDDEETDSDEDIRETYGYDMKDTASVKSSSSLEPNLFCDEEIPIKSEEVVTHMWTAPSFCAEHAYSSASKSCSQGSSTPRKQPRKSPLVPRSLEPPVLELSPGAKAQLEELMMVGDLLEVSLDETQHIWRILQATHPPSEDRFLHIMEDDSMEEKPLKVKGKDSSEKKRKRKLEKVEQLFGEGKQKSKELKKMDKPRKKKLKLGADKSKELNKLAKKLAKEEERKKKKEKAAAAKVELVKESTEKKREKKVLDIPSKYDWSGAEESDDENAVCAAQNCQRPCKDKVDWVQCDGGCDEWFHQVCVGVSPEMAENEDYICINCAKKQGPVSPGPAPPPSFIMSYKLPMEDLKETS

Compound | EC50 [1] [nM] | IC50 [2] [nM] | IC50 [3] [nM] | IC50 [4] [nM]
O=C(O)c1ccnc(-n2nccc2OCc2ccc(Cl)cc2F)c1 | 1300 | 18 | 4 | –
COc1cc(-c2ccnn2-c2cc(C(=O)O)ccn2)ccc1C | – | – | 540 | 1800
COc1cc(-c2ccnn2-c2cc(C(=O)O)ccn2)ccc1Cl | – | – | 230 | 2900
O=C(O)c1ccnc(-n2nccc2OCc2ccc(Cl)cc2)c1 | 420 | 14 | 4 | 54
N#Cc1ccc(COc2ccnn2-c2cc(C(=O)O)ccn2)cc1 | 940 | 4 | 0.6 | 14
CS(=O)(=O)c1ccc(-c2ccnn2-c2cc(C(=O)O)ccn2)cc1 | – | – | 350 | 2700
O=C(O)c1ccnc(-n2nccc2-c2ccccc2)c1 | – | – | 4400 | 6200
O=C(O)c1ccnc(-n2nccc2-c2ccc(F)cc2F)c1 | – | – | 170 | 380
O=C(O)c1ccnc(-n2nccc2-c2cccc(O)c2)c1 | – | – | 120 | 410
O=C(O)c1ccnc(-n2nccc2-c2ccc(F)cc2)c1 | – | – | 240 | 490
O=C(O)c1ccnc(-n2nccc2-c2ccc(F)c(F)c2)c1 | – | – | 370 | 560
O=C(O)c1ccnc(-n2nccc2OCc2ccccc2F)c1 | – | 270 | 42 | –
O=C(O)c1ccnc(-n2nccc2OCc2cccc(F)c2)c1 | 12000 | 430 | 22 | –
O=C(O)c1ccnc(-n2nccc2OCc2ccccc2)c1 | 7000 | 550 | 1 to 24 | 5
O=C(O)c1ccnc(-n2nccc2OCc2ccc(Cl)cc2OCC2CC2)c1 | – | 75 | 6 | 280
O=C(O)c1ccnc(-n2nccc2-c2cccc(F)c2)c1 | – | – | 500 | 660
O=C(O)c1ccnc(-n2nccc2OCc2ccc(C(F)(F)F)cc2)c1 | – | 240 | – | –

Compound | EC50 [1] [nM] | IC50 [2] [nM] | IC50 [3] [nM] | IC50 [4] [nM]
Cc1ccc(COc2ccnn2-c2cc(C(=O)O)ccn2)cc1 | 990 | 32 | 4 | 1100
CCc1cnn(-c2cc(C(=O)O)ccn2)c1OCc1ccc(F)cc1 | – | 29 | 24 | 260
O=C(O)c1ccnc(-n2nccc2OCc2ccc(Cl)cc2OCc2ccccc2)c1 | 800 | 32 | 4 | 74
CCc1ccc(COc2ccnn2-c2cc(C(=O)O)ccn2)cc1 | 1300 | 44 | 3 | 3600
O=C(O)c1ccnc(-n2nccc2OCc2ccc(Br)cc2)c1 | 860 | 6 | 2 | –
CN(C)CCc1cnn(-c2cc(C(=O)O)ccn2)c1OCc1ccc(F)cc1 | 4600 | 3 | 1 | 19
CCOc1cc(Cl)ccc1COc1ccnn1-c1cc(C(=O)O)ccn1 | 1000 | 19 | 4 | 78
O=C(O)c1ccnc(-n2ncc(CCO)c2OCc2ccc(F)cc2)c1 | – | 80 | 68 | > 2000
CC(Oc1ccnn1-c1cc(C(=O)O)ccn1)c1ccc(F)cc1 (stereo unspecified) | – | 180 | 41 | 310
Cc1ccc(-c2ccnn2-c2cc(C(=O)O)ccn2)cc1O | – | – | 76 | 1100
Cc1cnn(-c2cc(C(=O)O)ccn2)c1OCc1ccc(F)cc1 | – | 77 | 54 | 2900
O=C(O)c1ccnc(-n2nccc2OCc2ccc(F)cc2)c1 | 840 | 38 | 4 | 24
COc1ccc(COc2ccnn2-c2cc(C(=O)O)ccn2)cc1 | – | 1700 | 4 | 68
Cc1ccc(-c2ccnn2-c2cc(C(=O)O)ccn2)cc1 | – | – | 200 | 1100
O=C(O)c1ccnc(-n2nccc2-c2ccc(O)cc2)c1 | – | – | 320 | 450
O=C(O)c1ccnc(-n2nccc2OCc2ccc(C3CC3)cc2)c1 | – | 250 | 8 | –
COc1cc(Cl)ccc1COc1ccnn1-c1cc(C(=O)O)ccn1 | 110 | 12 | 1 | 38

Source: ChEMBL document CHEMBL4219204, “Structure-based design and discovery of potent and selective KDM5 inhibitors” (Bioorg Med Chem Lett, 2018)
